From patent publication US9920088B2, “Triterpene derivative and its anti-influenza use” (Peking University, priority 2012, dated 2018)
Read-outs that look alike come from different tables or passages of the source.

Columns and labels:
[1] = tested on: A/LiaoNing-ZhenXing/1109/2010(H1N1); test: CPE reduction assay, LN/1109 (H1N1); assay type: cell-based; conditions: Influenza A virus
[2] = tested on: A/HuNan-ZhuHui/1222/2010 (H3N2); test: CPE reduction assay, HN/1222 (H3N2); assay type: cell-based; conditions: Influenza A virus

| SMILES | EC50 ([1]; read-out: EC50) [µM] | EC50 ([2]; read-out: EC50) [µM] | EC50 [1] [µM] | EC50 [2] [µM] |
| --- | --- | --- | --- | --- |
| NC12CC3CC(CC(C3)C1)C2 [Amantadine, amantadine, reference compound] | 0.44 ± 0.14 | > 200 | – | – |
| CC1(C)CC[C@]2(C(=O)O[C@H]3OC(CO)[C@@H](O)C(O)C3O)C(O)C[C@]3(C)C(=CC[C@@H]4[C@@]5(C)CC[C@H](O)C(C)(C)[C@@H]5CC[C@]43C)[C@@H]2C1 (stereo partly drawn) [Compound Q9, 3β,16α-dihydroxy-olean-12-en-28-oic acid-28-O-(β-D-galactoside)] | 17.8 ± 12.6 | 25.6 ± 9.14 | – | – |
| CC1(C)CC[C@@]2(C(=O)N[C@H]3OC(CO)[C@@H](O)C(O)C3O)C(C1)C1=CCC3[C@@]4(C)CC[C@H](O)C(C)(C)C4CC[C@@]3(C)[C@]1(C)C[C@H]2O (stereo partly drawn) [Compound Y2, 3β,16α-dihydroxy-olean-12-en-28-oic acid-28-N-(β-D-galactoside)] | > 22.2 | > 22.2 | – | – |
| CC(=O)OCC1O[C@H](NC(=O)[C@]23CCC(C)(C)CC2C2=CCC4[C@@]5(C)CC[C@H](O)C(C)(C)C5CC[C@@]4(C)[C@]2(C)CC3)C(OC(C)=O)C(OC(C)=O)[C@@H]1OC(C)=O (stereo partly drawn) [Compound Y5, 3β-hydroxy-olean-12-en-28-oic acid-28-N-(2,3,4,6-tetra-O-acetyl-β-D-galactoside)] | 6.58 ± 1.17 | 3.18 ± 0.08 | – | – |
| CCOC(=O)C1=C[C@@H](OC(CC)CC)[C@H](NC(C)=O)[C@@H](N)C1 [OSV-P, oseltamivir phosphate, reference compound] | > 200 | 8.75 ± 4.41 | – | – |
| NC(=O)c1ncn([C@@H]2O[C@H](CO)[C@@H](O)[C@H]2O)n1 [RBV, ribavirin, reference compound] | – | – | 5.75 ± 0.35 | 3.56 ± 0.24 |
